Experiments:
Experiment in all cases: Test D controlled growth environment herbicide test, pre- and postemergence
Type in all cases: in vivo
[1] = test system: Russian thistle (Salsola kali)
In short: (§1)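 Species sown in silt loam and sprayed preemergence, or grown in peat-based medium to 2–18 cm (1- to 4-leaf stage) and sprayed postemergence, with compounds in non-phytotoxic solvent plus surfactant. Visual injury scored versus controls after 14–21 d in a controlled environment, 0 (no effect) to 100 (complete control).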

[2] = test system: wheat, spring (spring wheat, Triticum aestivum)
In short: as §1

[3] = test system: pigweed (Amaranthus retroflexus)
In short: as §1

[4] = test system: wheat, winter (winter wheat, Triticum aestivum)
In short: as §1

[5] = test system: foxtail, green (green foxtail, Setaria viridis)
In short: as §1

[6] = test system: oat, wild (wild oat, Avena fatua)
In short: as §1

[7] = test system: field violet (Viola arvensis)
In short: as §1

[8] = test system: mustard, wild (wild mustard, Sinapis arvensis)
In short: as §1

kochia (Kochia scoparia) = test system: kochia (Kochia scoparia)
In short: as §1

[9] = test system: deadnettle (henbit deadnettle, Lamium amplexicaule)
In short: as §1

[10] = test system: barley, spring (spring barley, Hordeum vulgare)
In short: as §1

[11] = test system: windgrass (Apera spica-venti)
In short: as §1

[12] = test system: bluegrass (annual bluegrass, Poa annua)
In short: as §1

[13] = Postemergence, 31 g ai/ha, scale 0 to 100 (0 no effect, 100 complete control)
[14] = Postemergence, 125 g ai/ha, visual rating on scale 0 (no effect) to 100 (complete control), 14 to 21 d
[15] = Postemergence, 250 g ai/ha, scale 0 to 100 (0 no effect, 100 complete control)
[16] = Preemergence, 62 g ai/ha, scale 0 to 100 (0 no effect, 100 complete control)
[17] = Preemergence, 125 g ai/ha, scale 0 to 100 (0 no effect, 100 complete control)
[18] = Preemergence, 250 g ai/ha, scale 0 to 100 (0 no effect, 100 complete control)
[19] = postemergence, 62 g ai/ha, scale 0 to 100, 0 no effect, 100 complete control

CCC(=O)Oc1c(C)nn(C)c(=O)c1-c1c(C)sc2ccc(C)cc12 [Compound 42]
Russian Thistle plant response rating [1, 13]: 70 | Plant response rating, Russian Thistle [1, 14]: 85 | Plant response rating, Russian Thistle [1, 15]: 90 | Plant response rating (scale of 0 to 100), Russian Thistle ([1]; Preemergence, 31 g ai/ha): 10 | Plant response rating, Russian Thistle [1, 16]: 15 | Plant response rating, Russian Thistle [1, 17]: 65 | Plant response rating, Russian Thistle [1, 18]: 75 | Plant response rating, Russian Thistle [1, 19]: 75 | Wheat, Spring plant response rating [2, 13]: 0 | Plant response rating, Wheat, Spring [2, 14]: 15 | Plant response rating, Wheat, Spring [2, 15]: 20 | Plant response rating (scale of 0 to 100), Wheat, Spring ([2]; Preemergence, 31 g ai/ha): 0 | Plant response rating, Wheat, Spring [2, 16]: 0 | Plant response rating, Wheat, Spring [2, 17]: 0 | Plant response rating, Wheat, Spring [2, 18]: 20 | Plant response rating, Wheat, Spring [2, 19]: 10 | Pigweed plant response rating [3, 13]: 85 | Plant response rating, Pigweed [3, 14]: 90 | Plant response rating, Pigweed [3, 15]: 100 | Plant response rating (scale of 0 to 100), Pigweed ([3]; Preemergence, 31 g ai/ha): 90 | Plant response rating, Pigweed [3, 16]: 100 | Plant response rating, Pigweed [3, 17]: 100 | Plant response rating, Pigweed [3, 18]: 100 | Plant response rating, Pigweed [3, 19]: 90 | Wheat, Winter plant response rating [4, 13]: 0 | Plant response rating, Wheat, Winter [4, 14]: 10 | Plant response rating, Wheat, Winter [4, 15]: 15 | Plant response rating (scale of 0 to 100), Wheat, Winter ([4]; Preemergence, 31 g ai/ha): 0 | Plant response rating, Wheat, Winter [4, 16]: 0 | Plant response rating, Wheat, Winter [4, 17]: 5 | Plant response rating, Wheat, Winter [4, 18]: 15 | Plant response rating, Wheat, Winter [4, 19]: 5 | Foxtail, Green plant response rating [5, 13]: 35 | Plant response rating, Foxtail, Green [5, 14]: 65 | Plant response rating, Foxtail, Green [5, 15]: 80 | Plant response rating (scale of 0 to 100), Foxtail, Green ([5]; Preemergence, 31 g ai/ha): 30 | Plant response rating, Foxtail, Green [5, 16]: 65 | Plant response rating, Foxtail, Green [5, 17]: 100 | Plant response rating, Foxtail, Green [5, 18]: 100 | Plant response rating, Foxtail, Green [5, 19]: 50 | Oat, Wild plant response rating [6, 13]: 75 | Plant response rating, Oat, Wild [6, 14]: 85 | Plant response rating, Oat, Wild [6, 15]: 95 | Plant response rating (scale of 0 to 100), Oat, Wild ([6]; Preemergence, 31 g ai/ha): 90 | Plant response rating, Oat, Wild [6, 16]: 90 | Plant response rating, Oat, Wild [6, 17]: 95 | Plant response rating, Oat, Wild [6, 18]: 95 | Plant response rating, Oat, Wild [6, 19]: 85 | Field Violet plant response rating [7, 13]: 70 | Plant response rating, Field Violet [7, 14]: 90 | Plant response rating, Field Violet [7, 15]: 90 | Plant response rating (scale of 0 to 100), Field Violet ([7]; Preemergence, 31 g ai/ha): 85 | Plant response rating, Field Violet [7, 16]: 95 | Plant response rating, Field Violet [7, 17]: 100 | Plant response rating, Field Violet [7, 18]: 100 | Plant response rating, Field Violet [7, 19]: 80 | Mustard, Wild plant response rating [8, 13]: 25 | Plant response rating, Mustard, Wild [8, 14]: 70 | Plant response rating, Mustard, Wild [8, 15]: 80 | Plant response rating (scale of 0 to 100), Mustard, Wild ([8]; Preemergence, 31 g ai/ha): 15 | Plant response rating, Mustard, Wild [8, 16]: 15 | Plant response rating, Mustard, Wild [8, 17]: 20 | Plant response rating, Mustard, Wild [8, 18]: 25 | Plant response rating, Mustard, Wild [8, 19]: 70 | Kochia plant response rating (kochia (Kochia scoparia); [13]): 70 | Plant response rating, Kochia (kochia (Kochia scoparia); [14]): 95 | Plant response rating, Kochia (kochia (Kochia scoparia); [15]): 100 | Plant response rating (scale of 0 to 100), Kochia (kochia (Kochia scoparia); Preemergence, 31 g ai/ha): 20 | Plant response rating, Kochia (kochia (Kochia scoparia); [16]): 60 | Plant response rating, Kochia (kochia (Kochia scoparia); [17]): 75 | Plant response rating, Kochia (kochia (Kochia scoparia); [18]): 100 | Plant response rating, Kochia (kochia (Kochia scoparia); [19]): 90 | Deadnettle plant response rating [9, 13]: 5 | Plant response rating, Deadnettle [9, 14]: 35 | Plant response rating, Deadnettle [9, 15]: 55 | Plant response rating (scale of 0 to 100), Deadnettle ([9]; Preemergence, 31 g ai/ha): 0 | Plant response rating, Deadnettle [9, 16]: 0 | Plant response rating, Deadnettle [9, 17]: 25 | Plant response rating, Deadnettle [9, 18]: 15 | Plant response rating, Deadnettle [9, 19]: 25 | Plant response rating, Barley, Spring [10, 13]: 0 | Plant response rating, Barley, Spring [10, 14]: 5 | Plant response rating, Barley, Spring [10, 15]: 10 | Plant response rating (scale of 0 to 100), Barley, Spring ([10]; Preemergence, 31 g ai/ha): 0 | Plant response rating, Barley, Spring [10, 16]: 0 | Plant response rating, Barley, Spring [10, 17]: 0 | Barley, Spring plant response rating [10, 18]: 5 | Plant response rating, Barley, Spring [10, 19]: 0 | Windgrass plant response rating [11, 13]: 70 | Plant response rating, Windgrass [11, 14]: 90 | Plant response rating, Windgrass [11, 15]: 98 | Plant response rating (scale of 0 to 100), Windgrass ([11]; Preemergence, 31 g ai/ha): 70 | Plant response rating, Windgrass [11, 16]: 85 | Plant response rating, Windgrass [11, 17]: 85 | Plant response rating, Windgrass [11, 18]: 100 | Plant response rating, Windgrass [11, 19]: 75 | Bluegrass plant response rating [12, 13]: 15 | Plant response rating, Bluegrass [12, 14]: 20 | Plant response rating, Bluegrass [12, 15]: 35 | Plant response rating (scale of 0 to 100), Bluegrass ([12]; Preemergence, 31 g ai/ha): 35 | Plant response rating, Bluegrass [12, 16]: 45 | Plant response rating, Bluegrass [12, 17]: 65 | Bluegrass plant response rating [12, 18]: 80 | Plant response rating, Bluegrass [12, 19]: 20

From US10597388B2, “Pyridazinone herbicides” (FMC CORPORATION, priority 2014, dated 2020)
